In US20220218614A1, “IONIZABLE CATIONIC LIPIDS AND LIPID NANOPARTICLES, AND METHODS OF SYNTHESIS AND USE THEREOF” (Tidal Therapeutics, Inc., priority 2020, published 2022):
“Also recorded” adds a separate entry of the source.

Assays:
[1] = Hydrodynamic diameter and polydispersity of LNPs by dynamic light scattering (DLS), Zetasizer; type: physicochemical; details: insertion of anti-CD3 hSP34-PEG2k-DSPE conjugate
Description: (§1) Samples of the LNPs produced in Example 2 were characterized to determine the average hydrodynamic diameter, zeta potential, and mRNA content (total and dye-accessible). The hydrodynamic diameter was determined by dynamic light scattering (DLS) using a Zetasizer model ZEN3600 (Malvern Pananalytical, UK). The zeta potential was measured in 5 mM pH 5.5 MES buffer and 5 mM pH 7.4 HEPES buffer by laser Doppler electrophoresis using the Zetasizer.

[2] = Zeta potential of LNPs by laser Doppler electrophoresis in 5 mM pH 5.5 MES and 5 mM pH 7.4 HEPES buffer; type: physicochemical; details: pH 5.5 MES and pH 7.4 HEPES buffer
Description: as §1

[3] = Quant-iT RiboGreen RNA assay: dye accessible and total (Triton) mRNA content, encapsulation; type: physicochemical; details: Table 9: Lipid 2 and Lipid 6 LNP
Description: RNA content of the nanoparticles is measured using Thermo Fisher Quant-iT RiboGreen RNA Assay Kit. Dye accessible RNA, which includes both non-incorporated RNA and RNA that is near the surface of the nanoparticle, is measured by diluting the nanoparticles to approximately 1 μg/mL mRNA using HEPES buffered saline, and then adding Quant-iT reagent to the mixture. Total RNA content is measured by diluting the particles to 1 μg/mL mRNA using HEPES buffered saline, disrupting the nanoparticles by heating them to 60° C. for 30 minutes in HEPES buffered saline containing 0.5% Triton, and then adding Quant-It reagent. RNA is quantified by measuring fluorescence at 485/535 nm, and concentration is determined relative to a contemporaneously run RNA standard curve.

[4] = Apparent pKa of LNPs by TNS fluorescent probe; type: physicochemical; details: LNP made with the named ionizable lipid; pH at 50% of maximum TNS fluorescence
Description: This example describes the fluorescent dye based method used for measurement of the apparent pKa of the lipid nanoparticles. Apparent pKa determines the nanoparticle surface charge under physiological pH conditions, typically a pKa value in the endosomal pH range (6-7.4) results in LNPs that are neutral or slightly charged at plasma or the extracellular space (pH 7.4) and become strongly positive under acidic endosomal environments. This positive surface charge drives fusion of the LNP surface with negatively charged endosomal membranes resulting in destabilization and rupture of the endosomal compartment and LNP escape into the cytosolic compartment, a critical step in cytosolic delivery of mRNA and protein expression via engagement of the cells ribosomal machinery.
The apparent pKa of LNPs made using ionizable Lipids 2, 5 (synthesized as described in example 1), 6 and 7 (synthesized using method analogous to Lipid 2, 5, respectively, except using diethyl amine instead of dimethyl amine to incorporate the tertiary amine head group) were determined by 6-(p-Toluidino)-2-naphthalenesulfonic acid (TNS) fluorescence measurement in aqueous buffers covering a range of pH values (pH 4-pH 10). TNS is non-fluorescent when free in solution, but which fluoresces strongly when associated with a positively charged lipid nanoparticle. At a pH values below the pKa of the nanoparticle, positive LNP surface charge results in dye recruitment at the particle interface resulting in TNS fluorescence. At pH values above the LNP pKa no fluorescence is observed. The apparent pKa of the LNP is reported as the pH at which the fluorescence is at 50% of its maximum, as determined using a four-point logistic curve fit.

[5] = test system: primary human T-cells (CD3+ T cells); test: In vitro LNP transfection of primary human T-cells (GFP, Cy5 or DiI, viability by FACS); type: cell-based
Description: This example describes the protocol used for in vitro LNP transfections in primary human T-cells. This method is used to assess LNP in vitro efficacy in relevant target cells (CD3+ T cells) by first transfecting the cells using LNPs loaded with mRNA encoding for a reporter gene, such as GFP mRNA, and then assessing transfection by measuring reporter gene expression by fluorescence-[…] cell sorting (FACS). Additionally, particle association with cells may be observed by in the same assay by labeling individual nanoparticle components, such as the mRNA, with a fluorescent dye, such as Cy5, and then observing cell/dye association by FACS.
CD3+ T cells were isolated from frozen peripheral blood mononuclear cells using an EasySep Human T Cell Isolation Kit on a RoboSep automated cell isolation system from […]. T cells were plated into a flat bottom 96-well plate in RPMI cell culture media supplemented with glutamax, 10% fetal bovine serum, and 40 ng/mL IL2. 100 μL of cell suspension was seeded per well at a density of 1M T cells/mL (100K T cells/well). Cells were allowed to rest for two hours in a 37° C. incubator, and then were transfected by gently adding 10 μL of a 22 μg/mL (by mRNA) nanoparticle suspension, resulting in a final mRNA concentration of 2 μg/mL. Cells were gently mixed with a pipette and then incubated for 24 hours in a 37° C. incubator. After incubation the cells were analyzed using an ThermoFisher Attune NXT flow cytometer. Cy5 was detected using a 638 nm laser with 670/14 nm filter. eGFP was detected using a 488 nm laser and a 530/30 nm filter. Data were analyzed using FlowJo software from BD biosciences. FACS data were first gated to exclude doublets and dead cells and then gated for GFP and Cy5. Gates for GFP+ and Cy5+were set such that a control sample (PBS treated T cells) was <0.1% positive.
CD3+ T cells were isolated from frozen peripheral blood mononuclear cells using an EasySep Human T Cell Isolation Kit on a RoboSep automated cell isolation system from […]. T cells were plated into a round bottom 96-well plate in RPMI cell culture media supplemented with glutamax, 10% fetal bovine serum, pen-strep, and 40 ng/mL IL-2. 100 μL of cell suspension was seeded per well at a density of 1M T cells/mL (100K T cells/well). Cells were allowed to rest for two hours in a 37° C. incubator, and then were transfected by gently adding 10 μL of a 22 μg/mL (by mRNA) nanoparticle suspension, resulting in a final mRNA concentration of 2 μg/mL (unless otherwise noted). Cells were gently mixed with a pipette and then incubated for 24 hours in a 37° C. incubator. After incubation the cells were diluted with FACS buffer (BD 554657) and analyzed using a BD Fortessa flow cytometer. Data were analyzed using FlowJo software from BD biosciences.

[6] = Freeze thaw stability of LNP formulations (storage at 4° C., −80° C. or flash frozen in liquid nitrogen; DLS); type: physicochemical; details: one freeze thaw cycle, relative to 4 C storage
Description: Following the preparation of the targeted LNP formulation, the formulation was split into two portions. One portion was exchanged into 40 mM pH 7.4 HEPES buffer, and the other portion was exchanged into 30 mM pH 7.4 Tris buffer. The buffer exchange was performed using a discontinuous diafiltration method where the LNP formulation sample was transferred into a centrifugal ultrafiltration device with […] MWCO regenerated cellulose membrane (Amicon Ultra-4, MilliporeSigma, Massachusetts, US), then diluted 10-fold with the exchange buffer, and concentrated back to the original volume by centrifuging at 500 rcf. This dilution and concentration step was repeated one additional time. The exchanged LNP samples were then divided into separate aliquots that were mixed with concentrated sodium chloride and sucrose solutions to provide the final freeze-thaw sample formulations. Samples of each freeze-thaw formulation were then stored at 4° C., frozen at −80° C., or flash frozen in liquid nitrogen. The samples were later thawed at room temperature and tested for size by DLS and in vitro T cell transfection.

human CD8 T cells = test: Transfection of human CD8 T cells with Fab-targeted Cy5/GFP mRNA LNPs; type: cell-based; details: Lipid 8 LNP, Cy5/GFP mRNA approximately 2.5 μg/mL, approximately 24 hr, Fab conjugate post-inserted
Description: LNPs were prepared using the mixing process described in Example 6, the buffer exchange process described in Example 21. hSP34 and TRX2 Fab-lipid conjugates generated from methods described in Example 4 and a non-T cell specific anti-HER2 lipid-conjugate (Nellis D F, Ekstrom D L, Kirpotin D B, Zhu J, Andersson R, Broadt T L, Ouellette T F, Perkins S C, Roach J M, Drummond D C, Hong K, Marks J D, Park J W and Giardina S L (2005) Preclinical manufacture of an anti-HER2 scFv-PEG-DSPE, liposome-inserting conjugate. 1. Gram-scale production and purification. Biotechnol Prog 21:205-220) were post-inserted at various densities (SP34 0.6-17 g/mol; TRX2 3-9 g/mol; anti-HER2 17 g/mol) into LNPs containing Lipid 8, Cy5 labeled GFP mRNA and GFP mRNA (1:9 Cy5:GFP mass ratio) by adding conjugate and LNPs together and heating the solution without mixing in a thermal cycler at 60 C for 60 min and cooled to 4° C. for 3-5 min. […] After transfection, LNP binding efficiency (Cy5) and transfection efficiency (GFP) was evaluated by flow cytometry. Supernatants were measured for human IFNγ concentration using a commercially available ELISA kit under manufacturers recommended conditions (R&D Systems Duoset). […]

[7] = theoretical total mRNA 45 μg/mL

CCCCC/C=C\C/C=C\CCCCCCCC(=O)OC[C@H](COC(=O)CCCN(CC)CC)OC(=O)CCCCCCC/C=C\C/C=C\CCCCC [Lipid 6]
change in particle size and PDI upon conjugate insertion [1]: significantly greater size distribution changes compared to Lipid 12 and Lipid 13 LNPs; also recorded: moderate changes in particle size and PDI | LNP surface charge (zeta potential), in words [2]: greater positive surface charge relative to Lipid 12 and 13 | % Dye Accessible mRNA [3]: 15% | Measured total (Triton method) mRNA [3, 7]: 40 µg/mL | Ribogreen Dye Accessible mRNA [3, 7]: 6 µg/mL | apparent pKa of LNP (TNS) [4]: ~7 | T-cell transfection and cell association after freeze-thaw, in words ([5]; after one freeze thaw cycle, relative to 4 C storage): retained function after being subjected to freeze-thaw stress | GFP protein expression (% GFP+ cells, GFP MFI), in words ([5]; hSP34 targeted LNP with GFP mRNA, 24 hours): Dose dependent expression of GFP protein | LNP association with cells (% Cy5+/Cy5 MFI or % DiI+/DiI MFI), in words ([5]; hSP34 targeted LNP, 24 hours): equally associated with cells | T-cell viability / tolerability, in words ([5]; hSP34 targeted LNP, 24 hours, dose as in the value): well tolerated by T-cells at all LNP doses tested; also recorded: moderately higher viability at higher dose of 2 μg/mL | LNP size and polydispersity after freeze-thaw, in words [6]: minor changes in particle size distributions after frozen storage at −80 C

Hu291: anti-CD3 Fab, SEQ ID NO: 4 and 5
transfection (% GFP+, GFP MFI) and binding (% Cy5+, Cy5 MFI), in words (human CD8 T cells): high levels of % Cy5+ T cells
